Molecules are shown by their SMILES. Where two headings read alike, the source gives them in different places.

The results in this text go back to patent publication US8212016B2, “NPC1L1 orthologues” (Schering Corporation, priority 2006, dated 2012).

One experiment addresses monkey NPC1L1 (Macaca mulatta, UniProt A0MJA5). The experiment in a line: Radioligand binding of [3H]-glucuronidated ezetimibe (compound 4) to cell membranes. Further details: species or system rhesus monkey. On the procedure: Cell Culture and Membrane Preparation. […] Cells were maintained in DMEM supplemented with 10% FBS, 100 U/ml pen/strep, and 500 μg/ml geneticin at 37° C., 5% CO2. All cell culture reagents were obtained from Invitrogen Life Technologies, (Carlsbad, Calif.). Cell membranes were prepared by lysing cells in 5 mM HEPES with protease inhibitors (Complete™ Protease Inhibitor Cocktail Tablets; Roche Diagnostics Corp., Indianapolis Ind.) for 15 min at 4° C. A membrane pellet was obtained by centrifuging the cell lysates at 12,000×g for 25 min. […] Radioligand. […] Natl. Acad. Sci. […] Reactions were performed in binding buffer (5 mM HEPES, 5.5 mM glucose, 117 mM NaCl and 5.4 mM KCl, pH 7.4). Cell membranes (50 μg in 20 μl) were added to each well. […] Binding reactions were incubated for 2 hours at 37° C. Samples were transferred to Unifilter-96 GF/C plates (Perkin Elmer, Wellesley Mass.) and filtered using a Brandel harvester (Gaithersburg Md.). […] Liquid scintillant (50 μl; Microscint-20, Perkin Elmer, Wellesley Mass.) was added and the bound radioactivity was measured using a microplate scintillation counter.

Experiment [1] concerns plasma and liver cholesterol. The experiment in a line: Percent cholesterol lowering in plasma and liver. The note with it: hamster. The experiment is classed as in vivo.
For a further experiment, the target named is T1, rat NPC1L1 (Rattus norvegicus, UniProt Q6T3U3, A349V/E317P/G318E/K324N/L297S).
T1 construct: expressed in transfected cells
The experiment in a line: Fluorescence NPC1L1 binding assay, HEK-293 cells, BODIPY-labeled compound 1. The settings on record: Rat NPC1L1, competition with compound 1; read-out: Ki. On the procedure:
(§1) Cell Culture and Membrane Preparation. Each plasmid pCR3.1 harboring NPC1L1 was prepared using standard molecular biology protocols. Stable cell lines expressing human, rhesus monkey, mouse, rat, hamster, canine or rabbit NPC1L1 were generated using Lipofectamine 2000 transfection reagent in HEK-293 cells according to the manufacturer's protocol. Cells were maintained in DMEM supplemented with 10% FBS, 100 U/ml pen/strep, and 500 μg/ml geneticin at 37° C., 5% CO2. All cell culture reagents were obtained from Invitrogen Life Technologies, (Carlsbad, Calif.). Cell membranes were prepared by lysing cells in 5 mM HEPES with protease inhibitors (Complete™ Protease Inhibitor Cocktail Tablets; Roche Diagnostics Corp., Indianapolis Ind.) for 15 min at 4° C. A membrane pellet was obtained by centrifuging the cell lysates at 12,000×g for 25 min. The membranes were resuspended in 5 mM HEPES with protease inhibitors and triturated with a 21G needle.
(§2) Fluorescence. Cells were plated into 384-well black/clear plates (BD Biosciences, Bedford Mass.) for binding experiments the following day. The media was aspirated. […] Media (20 μl) containing the indicated concentration of compound was then added to the wells. […] The binding reaction was allowed to proceed for 4 hours at 37° C. Subsequently the media was aspirated and the cells washed once with PBS.

A further experiment concerns the target hamster NPC1L1 (Mesocricetus auratus, UniProt A0MJA8). The experiment is described as above. On the procedure:
as §1, §2

The next experiment addresses rabbit NPC1L1 (Oryctolagus cuniculus, UniProt A0MJA7). The description is as above. The protocol:
as §1, §2

In another experiment the target is T2, mouse NPC1L1 (Mus musculus, UniProt Q6T3U4, N476K).
T2 construct: expressed in transfected cells
As to the kind of experiment: Fluorescence NPC1L1 binding assay, HEK-293 cells, fluorescent compound 2 as ligand. On the procedure:
as §1, §2
In an effort to show binding to mouse NPC1L1, several related ezetimibe analogs were examined as possible alternatives to fluorescently-labeled (BODIPY) ezetimibe glucuronide (compound 1) in the binding assay. Compound 2, which is a fluorescently labeled synthetic precursor for fluorescently-labeled (BODIPY) ezetimibe glucuronide (compound 1; Burnett et al., Bioorganic and Medicinal Chemistry Letters 12:315-318 (2002)), was identified as a viable option for detection of mouse NPC1L1 binding. Compound 2 contains a methyl ester substitution for the carboxylic acid on the glucuronide portion of the molecule (compound structures shown in FIG. 4A).

Consider `O=C(O)[C@H]1O[C@@H](Oc2ccc([C@@H]3[C@@H](CC[C@H](O)c4ccc(F)cc4)C(=O)N3c3ccc(F)cc3)cc2)[C@H](O)[C@@H](O)[C@@H]1O` [compound 4, glucuronidated ezetimibe], for which the affinity at monkey NPC1L1, expressed as Kd, was 102 nM. For the same molecule, the “cholesterol lowering Liver” value in experiment [1] (liver) was 92%. For the same molecule, the “cholesterol lowering Plasma” value in experiment [1] (plasma) was determined as 48%. The Ki at rat NPC1L1 was found to be 352 nM; on hamster NPC1L1 (Hamster NPC1L1, competition with compound 1, read-out: Ki), 370 nM; at hamster NPC1L1 (Table 3, Hamster, read-out: Ki Hamster NPC1L1), 371 nM; at rabbit NPC1L1 (Rabbit NPC1L1, competition with compound 1, read-out: Ki), 830 nM; at rabbit NPC1L1 (Table 3, Rabbit, read-out: Ki Rabbit NPC1L1), 830 nM; on mouse NPC1L1 (Mouse NPC1L1, competition with compound 2, read-out: Ki), 9000 nM. Also, the Ki at mouse NPC1L1 (Table 3, Mouse, read-out: Ki Mouse NPC1L1) worked out at 5400 nM. Also, at rabbit NPC1L1 (rabbit NPC1L1), the “difference in affinity versus ezetimibe (compound 3)” value was “less than 3 fold”.
